“And” between values parts separate entries of the source, which are not always exact repeats. Equal values may be shown once.
Assay: xn = mol fraction of the nth substance listed

C1COCCO1 + O
Conditions | viscosity
303.15 K, 101.3 kPa, x2 = 0.2053 | 1.163 mPa·s
303.15 K, 101.3 kPa, x2 = 0.3758 | 1.322 mPa·s and 1.321 mPa·s
303.15 K, 101.3 kPa, x2 = 0.7952 | 1.738 mPa·s
303.15 K, 101.3 kPa, x2 = 0.8661 | 1.58 mPa·s and 1.579 mPa·s
303.15 K, 101.3 kPa, x2 = 0.9391 | 1.221 mPa·s
303.15 K, 101.3 kPa, x2 = 0.9742 | 0.9855 mPa·s and 0.9853 mPa·s
303.15 K, 101.33 kPa, x1 = 0.0222 | 0.959 mPa·s
303.15 K, 101.33 kPa, x1 = 0.0486 | 1.137 mPa·s
303.15 K, 101.33 kPa, x1 = 0.0806 | 1.332 mPa·s
303.15 K, 101.33 kPa, x1 = 0.12 | 1.521 mPa·s
303.15 K, 101.33 kPa, x1 = 0.143 | 1.608 mPa·s
303.15 K, 101.33 kPa, x1 = 0.17 | 1.674 mPa·s
303.15 K, 101.33 kPa, x1 = 0.2 | 1.726 mPa·s
303.15 K, 101.33 kPa, x1 = 0.235 | 1.75 mPa·s
303.15 K, 101.33 kPa, x1 = 0.25 | 1.749 mPa·s
303.15 K, 101.33 kPa, x1 = 0.275 | 1.74 mPa·s
303.15 K, 101.33 kPa, x1 = 0.323 | 1.704 mPa·s
303.15 K, 101.33 kPa, x1 = 0.334 | 1.685 mPa·s
303.15 K, 101.33 kPa, x1 = 0.38 | 1.634 mPa·s
303.15 K, 101.33 kPa, x1 = 0.45 | 1.538 mPa·s
303.15 K, 101.33 kPa, x1 = 0.5 | 1.46 mPa·s
303.15 K, 101.33 kPa, x1 = 0.537 | 1.417 mPa·s
303.15 K, 101.33 kPa, x1 = 0.648 | 1.282 mPa·s
303.15 K, 101.33 kPa, x1 = 0.716 | 1.215 mPa·s
303.15 K, 101.33 kPa, x1 = 0.795 | 1.153 mPa·s
303.15 K, 101.33 kPa, x1 = 0.846 | 1.125 mPa·s
303.15 K, 101.33 kPa, x1 = 0.918 | 1.098 mPa·s
308.15 K, 101.33 kPa, x1 = 0.0222 | 0.859 mPa·s
308.15 K, 101.33 kPa, x1 = 0.0486 | 1.014 mPa·s
308.15 K, 101.33 kPa, x1 = 0.0806 | 1.184 mPa·s
308.15 K, 101.33 kPa, x1 = 0.12 | 1.349 mPa·s
308.15 K, 101.33 kPa, x1 = 0.143 | 1.419 mPa·s
308.15 K, 101.33 kPa, x1 = 0.17 | 1.479 mPa·s
308.15 K, 101.33 kPa, x1 = 0.2 | 1.525 mPa·s
308.15 K, 101.33 kPa, x1 = 0.235 | 1.549 mPa·s
308.15 K, 101.33 kPa, x1 = 0.25 | 1.553 mPa·s
308.15 K, 101.33 kPa, x1 = 0.275 | 1.546 mPa·s
308.15 K, 101.33 kPa, x1 = 0.323 | 1.518 mPa·s
308.15 K, 101.33 kPa, x1 = 0.334 | 1.503 mPa·s
308.15 K, 101.33 kPa, x1 = 0.38 | 1.46 mPa·s
308.15 K, 101.33 kPa, x1 = 0.45 | 1.38 mPa·s
308.15 K, 101.33 kPa, x1 = 0.5 | 1.317 mPa·s
308.15 K, 101.33 kPa, x1 = 0.537 | 1.282 mPa·s
308.15 K, 101.33 kPa, x1 = 0.648 | 1.17 mPa·s
308.15 K, 101.33 kPa, x1 = 0.716 | 1.112 mPa·s
308.15 K, 101.33 kPa, x1 = 0.795 | 1.06 mPa·s
308.15 K, 101.33 kPa, x1 = 0.846 | 1.036 mPa·s
308.15 K, 101.33 kPa, x1 = 0.918 | 1.017 mPa·s
313.1 K, 101 kPa, x2 = 0.228 | 0.97 mPa·s
313.1 K, 101 kPa, x2 = 0.2741 | 0.989 mPa·s
313.1 K, 101 kPa, x2 = 0.4187 | 1.047 mPa·s
313.1 K, 101 kPa, x2 = 0.7038 | 1.368 mPa·s
313.1 K, 101 kPa, x2 = 0.8099 | 1.376 mPa·s
313.1 K, 101 kPa, x2 = 0.8346 | 1.32 mPa·s
313.1 K, 101 kPa, x2 = 0.8791 | 1.229 mPa·s
313.1 K, 101 kPa, x2 = 0.9194 | 1.083 mPa·s
313.1 K, 101 kPa, x2 = 0.9508 | 0.937 mPa·s
313.1 K, 101 kPa, x2 = 0.9786 | 0.786 mPa·s
313.15 K, 101.3 kPa, x2 = 0.0459 | 0.9391 mPa·s
313.15 K, 101.3 kPa, x2 = 0.09407 | 0.9443 mPa·s
313.15 K, 101.3 kPa, x2 = 0.2053 | 0.9839 mPa·s
313.15 K, 101.3 kPa, x2 = 0.3758 | 1.1 mPa·s
313.15 K, 101.3 kPa, x2 = 0.7952 | 1.377 mPa·s
313.15 K, 101.33 kPa, x1 = 0.0222 | 0.776 mPa·s
313.15 K, 101.33 kPa, x1 = 0.0486 | 0.914 mPa·s
313.15 K, 101.33 kPa, x1 = 0.0806 | 1.061 mPa·s
313.15 K, 101.33 kPa, x1 = 0.12 | 1.199 mPa·s
313.15 K, 101.33 kPa, x1 = 0.143 | 1.265 mPa·s
313.15 K, 101.33 kPa, x1 = 0.17 | 1.322 mPa·s
313.15 K, 101.33 kPa, x1 = 0.2 | 1.365 mPa·s
313.15 K, 101.33 kPa, x1 = 0.235 | 1.386 mPa·s
313.15 K, 101.33 kPa, x1 = 0.25 | 1.383 mPa·s
313.15 K, 101.33 kPa, x1 = 0.275 | 1.384 mPa·s
313.15 K, 101.33 kPa, x1 = 0.323 | 1.366 mPa·s
313.15 K, 101.33 kPa, x1 = 0.334 | 1.352 mPa·s
313.15 K, 101.33 kPa, x1 = 0.38 | 1.316 mPa·s
313.15 K, 101.33 kPa, x1 = 0.45 | 1.249 mPa·s
323.1 K, 101 kPa, x2 = 0.228 | 0.836 mPa·s
323.1 K, 101 kPa, x2 = 0.2741 | 0.85 mPa·s
323.1 K, 101 kPa, x2 = 0.4187 | 0.888 mPa·s
323.1 K, 101 kPa, x2 = 0.591 | 1.063 mPa·s
323.1 K, 101 kPa, x2 = 0.7038 | 1.123 mPa·s
323.1 K, 101 kPa, x2 = 0.8099 | 1.122 mPa·s
323.1 K, 101 kPa, x2 = 0.8346 | 1.078 mPa·s
323.1 K, 101 kPa, x2 = 0.8791 | 1.006 mPa·s
323.1 K, 101 kPa, x2 = 0.9194 | 0.889 mPa·s
323.1 K, 101 kPa, x2 = 0.9508 | 0.774 mPa·s
323.1 K, 101 kPa, x2 = 0.9786 | 0.652 mPa·s

Source: the CheMixHub viscosity set
